PubChem BioAssay (NCI)
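Cells were grown in 96-well plates and exposed to each compound for 48 hours at five concentrations; endpoints were interpolated linearly between bracketing concentrations, or set to the highest concentration if not reached. GI50 marks 50% less growth. Definition used: TGI = concentration required for complete inhibition of growth.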

Test system: SN12C renal
Assay: DTP human tumour cell line panel, 48 h

SMILES | GI50 | TGI
COc1cc2cc(Oc3ccc(NC(=O)c4cc(C(F)(F)F)cc(C(F)(F)F)c4)cc3)c(C)nc2cc1OC | 3.49 µM | > 50 µM
O=C(Nc1cc(Cl)ccc1O)c1ccc(Nc2ccnc(C(F)(F)F)c2)cc1 | 2.65 µM | 32 µM
ClCCN(CCCl)c1ccc(CNc2ccccc2)cc1 | 4 µM | > 100 µM

Test system: SNB-75 CNS
Assay: DTP human tumour cell line panel, 48 h

SMILES | GI50 | TGI
Cc1cn(-c2cc(C(=O)Nc3cccc(-n4ccc5c(NC(=O)c6ccccc6)nccc54)c3)cc(C(F)(F)F)c2)cn1 | 0.252 µM | 3.27 µM
COc1cc2cc(Oc3ccc(NC(=O)c4cc(C(F)(F)F)cc(C(F)(F)F)c4)cc3)c(C)nc2cc1OC | 41.5 µM | > 50 µM
ClCCN(CCCl)c1ccc(CNc2ccccc2)cc1 | 3.7 µM | 57.4 µM

Test system: MCF7 breast
Assay: DTP human tumour cell line panel, 48 h

SMILES | GI50 | TGI
Cc1cn(-c2cc(C(=O)Nc3cccc(-n4ccc5c(NC(=O)c6ccccc6)nccc54)c3)cc(C(F)(F)F)c2)cn1 | 0.361 µM | 2.39 µM
COc1cc2cc(Oc3ccc(NC(=O)c4cc(C(F)(F)F)cc(C(F)(F)F)c4)cc3)c(C)nc2cc1OC | 1.91 µM | > 50 µM
O=C(Nc1cc(Cl)ccc1O)c1ccc(Nc2ccnc(C(F)(F)F)c2)cc1 | 2.68 µM | > 100 µM
ClCCN(CCCl)c1ccc(CNc2ccccc2)cc1 | 4.19 µM | > 100 µM

Test system: SK-MEL-5 melanoma
Assay: DTP human tumour cell line panel, 48 h

SMILES | GI50 | TGI
Cc1cn(-c2cc(C(=O)Nc3cccc(-n4ccc5c(NC(=O)c6ccccc6)nccc54)c3)cc(C(F)(F)F)c2)cn1 | 0.195 µM | 0.76 µM
COc1cc2cc(Oc3ccc(NC(=O)c4cc(C(F)(F)F)cc(C(F)(F)F)c4)cc3)c(C)nc2cc1OC | 2.76 µM | > 50 µM
O=C(Nc1cc(Cl)ccc1O)c1ccc(Nc2ccnc(C(F)(F)F)c2)cc1 | 2.19 µM | 4.95 µM
ClCCN(CCCl)c1ccc(CNc2ccccc2)cc1 | 11.3 µM | 34.4 µM

Test system: 786-0 renal
Assay: DTP human tumour cell line panel, 48 h

SMILES | GI50 | TGI
O=C(Nc1cc(Cl)ccc1O)c1ccc(Nc2ccnc(C(F)(F)F)c2)cc1 | 3.61 µM | > 100 µM
ClCCN(CCCl)c1ccc(CNc2ccccc2)cc1 | 5.11 µM | 36 µM

Test system: M14 melanoma
Assay: DTP human tumour cell line panel, 48 h

SMILES | GI50 | TGI
Cc1cn(-c2cc(C(=O)Nc3cccc(-n4ccc5c(NC(=O)c6ccccc6)nccc54)c3)cc(C(F)(F)F)c2)cn1 | 0.452 µM | 3.29 µM
COc1cc2cc(Oc3ccc(NC(=O)c4cc(C(F)(F)F)cc(C(F)(F)F)c4)cc3)c(C)nc2cc1OC | 3.23 µM | > 50 µM
O=C(Nc1cc(Cl)ccc1O)c1ccc(Nc2ccnc(C(F)(F)F)c2)cc1 | 3.56 µM | 54.1 µM
ClCCN(CCCl)c1ccc(CNc2ccccc2)cc1 | 8.27 µM | > 100 µM

Test system: HT29 colon
Assay: DTP human tumour cell line panel, 48 h

SMILES | GI50 | TGI
Cc1cn(-c2cc(C(=O)Nc3cccc(-n4ccc5c(NC(=O)c6ccccc6)nccc54)c3)cc(C(F)(F)F)c2)cn1 | 0.29 µM | 1.04 µM
COc1cc2cc(Oc3ccc(NC(=O)c4cc(C(F)(F)F)cc(C(F)(F)F)c4)cc3)c(C)nc2cc1OC | > 50 µM | > 50 µM
O=C(Nc1cc(Cl)ccc1O)c1ccc(Nc2ccnc(C(F)(F)F)c2)cc1 | 6.35 µM | > 100 µM
ClCCN(CCCl)c1ccc(CNc2ccccc2)cc1 | 20.4 µM | > 100 µM

Test system: OVCAR-8 ovarian
Assay: DTP human tumour cell line panel, 48 h

SMILES | GI50 | TGI
Cc1cn(-c2cc(C(=O)Nc3cccc(-n4ccc5c(NC(=O)c6ccccc6)nccc54)c3)cc(C(F)(F)F)c2)cn1 | 0.419 µM | 2.99 µM
O=C(Nc1cc(Cl)ccc1O)c1ccc(Nc2ccnc(C(F)(F)F)c2)cc1 | 4.54 µM | > 100 µM
ClCCN(CCCl)c1ccc(CNc2ccccc2)cc1 | 6.34 µM | > 100 µM

Test system: UACC-257 melanoma
Assay: DTP human tumour cell line panel, 48 h

SMILES | GI50 | TGI
Cc1cn(-c2cc(C(=O)Nc3cccc(-n4ccc5c(NC(=O)c6ccccc6)nccc54)c3)cc(C(F)(F)F)c2)cn1 | 0.51 µM | 19.7 µM
COc1cc2cc(Oc3ccc(NC(=O)c4cc(C(F)(F)F)cc(C(F)(F)F)c4)cc3)c(C)nc2cc1OC | 4.07 µM | > 50 µM
O=C(Nc1cc(Cl)ccc1O)c1ccc(Nc2ccnc(C(F)(F)F)c2)cc1 | 3.53 µM | > 100 µM
ClCCN(CCCl)c1ccc(CNc2ccccc2)cc1 | 12.7 µM | > 100 µM

Test system: HOP-62 NSCLC
Assay: DTP human tumour cell line panel, 48 h

SMILES | GI50 | TGI
Cc1cn(-c2cc(C(=O)Nc3cccc(-n4ccc5c(NC(=O)c6ccccc6)nccc54)c3)cc(C(F)(F)F)c2)cn1 | 0.628 µM | 15.3 µM
COc1cc2cc(Oc3ccc(NC(=O)c4cc(C(F)(F)F)cc(C(F)(F)F)c4)cc3)c(C)nc2cc1OC | > 50 µM | > 50 µM
O=C(Nc1cc(Cl)ccc1O)c1ccc(Nc2ccnc(C(F)(F)F)c2)cc1 | 3.23 µM | 23.7 µM
ClCCN(CCCl)c1ccc(CNc2ccccc2)cc1 | 6.32 µM | > 100 µM

Test system: NCI-H522 lung
Assay: DTP human tumour cell line panel, 48 h

SMILES | GI50 | TGI
Cc1cn(-c2cc(C(=O)Nc3cccc(-n4ccc5c(NC(=O)c6ccccc6)nccc54)c3)cc(C(F)(F)F)c2)cn1 | 0.375 µM | 8.21 µM
COc1cc2cc(Oc3ccc(NC(=O)c4cc(C(F)(F)F)cc(C(F)(F)F)c4)cc3)c(C)nc2cc1OC | 2.01 µM | > 50 µM
ClCCN(CCCl)c1ccc(CNc2ccccc2)cc1 | 4.85 µM | 22 µM

Test system: ACHN renal
Assay: DTP human tumour cell line panel, 48 h

SMILES | GI50 | TGI
Cc1cn(-c2cc(C(=O)Nc3cccc(-n4ccc5c(NC(=O)c6ccccc6)nccc54)c3)cc(C(F)(F)F)c2)cn1 | 0.549 µM | 8.7 µM
COc1cc2cc(Oc3ccc(NC(=O)c4cc(C(F)(F)F)cc(C(F)(F)F)c4)cc3)c(C)nc2cc1OC | 2.27 µM | > 50 µM
O=C(Nc1cc(Cl)ccc1O)c1ccc(Nc2ccnc(C(F)(F)F)c2)cc1 | 2.35 µM | 7.42 µM
ClCCN(CCCl)c1ccc(CNc2ccccc2)cc1 | 2.76 µM | > 100 µM

Test system: TK-10 renal
Assay: DTP human tumour cell line panel, 48 h

SMILES | GI50 | TGI
Cc1cn(-c2cc(C(=O)Nc3cccc(-n4ccc5c(NC(=O)c6ccccc6)nccc54)c3)cc(C(F)(F)F)c2)cn1 | 0.855 µM | 5.27 µM
COc1cc2cc(Oc3ccc(NC(=O)c4cc(C(F)(F)F)cc(C(F)(F)F)c4)cc3)c(C)nc2cc1OC | 3.82 µM | > 50 µM
O=C(Nc1cc(Cl)ccc1O)c1ccc(Nc2ccnc(C(F)(F)F)c2)cc1 | 2 µM | 7.89 µM

Test system: COLO 205 colon
Assay: DTP human tumour cell line panel, 48 h

SMILES | GI50 | TGI
Cc1cn(-c2cc(C(=O)Nc3cccc(-n4ccc5c(NC(=O)c6ccccc6)nccc54)c3)cc(C(F)(F)F)c2)cn1 | 0.525 µM | 1.71 µM
COc1cc2cc(Oc3ccc(NC(=O)c4cc(C(F)(F)F)cc(C(F)(F)F)c4)cc3)c(C)nc2cc1OC | 3.05 µM | > 50 µM
O=C(Nc1cc(Cl)ccc1O)c1ccc(Nc2ccnc(C(F)(F)F)c2)cc1 | 1.86 µM | 4.23 µM
ClCCN(CCCl)c1ccc(CNc2ccccc2)cc1 | 20.8 µM | > 100 µM

Test system: HCT-15 colon
Assay: DTP human tumour cell line panel, 48 h

SMILES | GI50 | TGI
Cc1cn(-c2cc(C(=O)Nc3cccc(-n4ccc5c(NC(=O)c6ccccc6)nccc54)c3)cc(C(F)(F)F)c2)cn1 | 0.29 µM | 4.71 µM
COc1cc2cc(Oc3ccc(NC(=O)c4cc(C(F)(F)F)cc(C(F)(F)F)c4)cc3)c(C)nc2cc1OC | 2.75 µM | > 50 µM
O=C(Nc1cc(Cl)ccc1O)c1ccc(Nc2ccnc(C(F)(F)F)c2)cc1 | 2.86 µM | > 100 µM
ClCCN(CCCl)c1ccc(CNc2ccccc2)cc1 | 10.4 µM | > 100 µM

Test system: SF-539 CNS
Assay: DTP human tumour cell line panel, 48 h

SMILES | GI50 | TGI
Cc1cn(-c2cc(C(=O)Nc3cccc(-n4ccc5c(NC(=O)c6ccccc6)nccc54)c3)cc(C(F)(F)F)c2)cn1 | 0.332 µM | 1.51 µM
